Experimental findings from patent US4322340A, “Pharmacologically active peptides” (Eli Lilly and Company, priority 1980, dated 1982) are described below.

The test system of data set [1] is mouse. As to the kind of experiment: mouse locomotor activity test (physical dependence liability). The class given is in vivo. Conditions: group of ten mice. Here is the method:
A high correlation has been established between the degree of physical dependence liability of a compound and its ability to elicit mouse locomotor activity; Cf. Goldstein et al., The Journal of Pharmacology and Experimental Therapeutics 169, 175-184 (1969); Rethy et al., The Journal of Pharmacology and Experimental Therapeutics 176, 472-479 (1971); and Brase et al., The Journal of Pharmacology and Experimental Therapeutics 201(2), 368-374 (1977).
Mouse locomotor activity is measured using cylindrical cages of wire mesh 2 inches high and 11 inches in diameter. Six cages are enclosed in a ventilated, sound-attenuated chamber having uniform lighting. A light beam is passed through the center of the cage to a photocell on the opposite side. Two mice are placed in each cage for one hour to become acclimated to the surroundings. Five pairs of mice then are injected subcutaneously with a predetermined dose of the test compound, the remaining pair receiving saline carrier free of test compound. The mice are returned to their respective cages for three hours. The number of counts per each 15 minute period as well as the total number over the three hour period are recorded. Each interruption of the light beam constitutes a count.
The following Table II reflects a mean of the total counts for each group of ten mice tested using a particular compound and dose level.

Data set [2] deals with mouse. As to the kind of experiment: mouse hot plate test (analgesic activity). The class given is in vivo. The following applies: subcutaneous injection, tested 15 minutes after administration, hot plate 52° C. Here is the method:
In this test, an upright acrylic cylinder comprising, as its base, a hot plate surface which is maintained at 52° C. is used. A mouse is given, by subcutaneous injection, a predetermined amount of test compound dissolved or suspended in a suitable carrier, and, 15 minutes after administration of the test compound, the mouse is placed on the hot plate surface. The latency in seconds until the mouse jumps from the hot plate surface is measured. […] This must occur in a dose range which produces no motor incoordination or incapacitation. The following Table I records ED50 results obtained from this test. By the term "ED50 " is meant that dose which produces analgesia in 50% of the mice tested. Analgesia is defined as a response latency in the presence of test compound that is equal to or greater than the control response latency plus two standard deviations. The percent analgesia data are converted to probits, and the ED50 is calculated by regression analysis of the dose-response data. Each dose response curve must have at least four points, and each point is determined using data from a minimum of ten treated mice and ten control mice.

Setting [3] is: Dose 128 mg./kg. subcutaneously.

Structures can show the parent of a compound that is named as a salt.

Regarding `CN[C@@H](Cc1ccc(O)cc1)C(=O)N[C@H](C)C(=O)NCC(=O)N(CC1CC1)[C@@H](Cc1cccc(Br)c1)C(N)=O` [Example 1, L-(N-Methyl)tyrosyl-D-alanyl-glycyl-L-(N-cyclopropylmethyl)-m-bromophenylalanine Amide, Acetate Salt], the “mean of the total counts, locomotor activity over three hours” value (shortened to “mean … over three hours”) in the data set on mouse [1] (Dose 4 mg./kg. subcutaneously) is reported as 171 counts; with mouse [1] (Dose 8 mg./kg. subcutaneously), 140 counts; in the data set on mouse [1] (Dose 16 mg./kg. subcutaneously), 276 counts; in the data set on mouse [1] (Dose 32 mg./kg. subcutaneously), 320 counts; with mouse [1] (Dose 64 mg./kg. subcutaneously) it was 1888 counts; with mouse [1] (setting [3]), 2159 counts.
In the case of `CCN(C(=O)CNC(=O)[C@@H](C)NC(=O)[C@H](Cc1ccc(O)cc1)NC)[C@@H](Cc1cccc(Br)c1)C(N)=O` [Example 2, L-(N-Methyl)tyrosyl-D-alanyl-glycyl-L-(N-ethyl)-m-bromophenylalanine Amide, Acetate Salt], the “mean … over three hours” value with mouse [1] (Dose 4 mg./kg. subcutaneously) is given as 142 counts; in the data set on mouse [1] (Dose 8 mg./kg. subcutaneously), 235 counts; with mouse [1] (Dose 16 mg./kg. subcutaneously), 358 counts; in the data set with mouse [1] (Dose 32 mg./kg. subcutaneously), 701 counts; with mouse [1] (Dose 64 mg./kg. subcutaneously), 2523 counts; with mouse [1] (setting [3]) it was 5153 counts. For the same compound, the “Analgesic Activity, Hot Plate Test, ED50” value with mouse [2] was 3 µg/kg.
In the case of `CCN(C(=O)CNC(=O)[C@@H](C)NC(=O)[C@H](Cc1ccc(O)cc1)NC)[C@@H](Cc1cccc(C)c1)C(N)=O` [Example 4, L-(N-Methyl)tyrosyl-D-alanyl-glycyl-L-(N-ethyl)-m-methyl-phenylalanine Amide, Acetate Salt], the “mean … over three hours” value turned out to be 173 counts with mouse [1] (Dose 4 mg./kg. subcutaneously); 255 counts in the data set on mouse [1] (Dose 8 mg./kg. subcutaneously); 537 counts in the data set on mouse [1] (Dose 16 mg./kg. subcutaneously); 1176 counts with mouse [1] (Dose 32 mg./kg. subcutaneously); 3231 counts with mouse [1] (Dose 64 mg./kg. subcutaneously); 3852 counts with mouse [1] (setting [3]). For the same compound, the “Analgesic Activity, Hot Plate Test, ED50” value in the data set on mouse [2] turned out to be 3 µg/kg.
Consider `CCN(C(=O)CNC(=O)[C@@H](C)NC(=O)[C@@H](N)Cc1ccc(O)cc1)[C@@H](Cc1cccc(Cl)c1)C(N)=O` [Example 5, L-Tyrosyl-D-alanyl-glycyl-L-(N-ethyl)-m-chlorophenylalanine Amide, Acetate Salt], for which the “mean … over three hours” value with mouse [1] (Dose 4 mg./kg. subcutaneously) turned out to be 125 counts; in the data set with mouse [1] (Dose 8 mg./kg. subcutaneously) it was 613 counts; in the data set with mouse [1] (Dose 16 mg./kg. subcutaneously), 819 counts; in the data set with mouse [1] (Dose 32 mg./kg. subcutaneously), 2388 counts; in the data set with mouse [1] (Dose 64 mg./kg. subcutaneously), 3667 counts; in the data set on mouse [1] (setting [3]) it was 2807 counts. Also, the “Analgesic Activity, Hot Plate Test, ED50” value in the data set on mouse [2] worked out at 0.3 µg/kg.
Regarding `CCN(C(=O)CNC(=O)[C@@H](C)NC(=O)[C@H](Cc1ccc(O)cc1)NC)[C@@H](Cc1cccc(Cl)c1)C(N)=O` [Example 6, L-(N-Methyl)tyrosyl-D-alanyl-glycyl-L-(N-ethyl)-m-chlorophenylalanine Amide, Acetate Salt], the “mean … over three hours” value in the data set with mouse [1] (Dose 4 mg./kg. subcutaneously) stood at 148 counts; in the data set with mouse [1] (Dose 8 mg./kg. subcutaneously) it was 304 counts; with mouse [1] (Dose 16 mg./kg. subcutaneously) it was 796 counts; with mouse [1] (Dose 32 mg./kg. subcutaneously) it was 1978 counts; with mouse [1] (Dose 64 mg./kg. subcutaneously) it was 4477 counts; with mouse [1] (setting [3]) it was 3476 counts. Moreover, the “Analgesic Activity, Hot Plate Test, ED50” value with mouse [2] is 1.8 µg/kg.
For `CCN(C(=O)CNC(=O)[C@@H](C)NC(=O)[C@@H](N)Cc1ccc(O)cc1)[C@@H](Cc1cccc(I)c1)C(N)=O` [Example 7, L-Tyrosyl-D-alanyl-glycyl-L-(N-ethyl)-m-iodophenylalanine Amide, Acetate Salt], the “mean … over three hours” value is 178 counts with mouse [1] (Dose 4 mg./kg. subcutaneously); 174 counts with mouse [1] (Dose 8 mg./kg. subcutaneously); 363 counts in the data set on mouse [1] (Dose 16 mg./kg. subcutaneously); 852 counts in the data set with mouse [1] (Dose 32 mg./kg. subcutaneously); 1630 counts in the data set on mouse [1] (Dose 64 mg./kg. subcutaneously); 2871 counts with mouse [1] (setting [3]). In addition, the “Analgesic Activity, Hot Plate Test, ED50” value in the data set with mouse [2] was 1.9 µg/kg.
Take `CCN(C(=O)CNC(=O)[C@@H](C)NC(=O)[C@@H](N)Cc1ccc(O)cc1)[C@@H](Cc1ccccc1)C(N)=O` [H Et H, reference compound]: the “mean … over three hours” value stood at 704 counts with mouse [1] (Dose 4 mg./kg. subcutaneously), 1204 counts in the data set on mouse [1] (Dose 8 mg./kg. subcutaneously), 2916 counts in the data set on mouse [1] (Dose 16 mg./kg. subcutaneously) and 3528 counts with mouse [1] (Dose 32 mg./kg. subcutaneously).
The corresponding values for `CCN(C(=O)CNC(=O)[C@@H](C)NC(=O)[C@H](Cc1ccc(O)cc1)NC)[C@@H](Cc1ccc(F)cc1)C(N)=O` [Me Et p-F, reference compound] are 431 counts, 1425 counts, 2415 counts and 2033 counts.
Take “L-Tyrosyl-D-alanyl-glycyl-L-(N-ethyl)-m-bromophenylalanine Amide, Acetate Salt [Example 3]”: the “mean … over three hours” value was 200 counts with mouse [1] (Dose 8 mg./kg. subcutaneously), 512 counts in the data set with mouse [1] (Dose 16 mg./kg. subcutaneously), 1092 counts with mouse [1] (Dose 32 mg./kg. subcutaneously) and 2820 counts with mouse [1] (Dose 64 mg./kg. subcutaneously). Besides, the “Analgesic Activity, Hot Plate Test, ED50” value in the data set on mouse [2] was found to be 4.9 µg/kg.
